The record followed here is patent US12202835B2, “Substituted aromatic ring-linked dioxinoquinazolines and dioxinoquinolines as kinase inhibitors” (BEIJING SCITECH-MQ PHARMACEUTICALS LIMITED, priority 2018, dated 2025).

Where only a bound is given, the exact number is not on record here.

One assay deals with EBC1 cells. As to the kind of experiment: Assay for inhibiting the proliferation of EBC1 cells (CCK-8). In kind it is cell-based.
Settings: not given
Here is the method:
In particular, the method of the assay of small molecular compounds for inhibiting cell proliferation is as follows: • 1. Cells cultured to a logarithmic growth phase (adherent cells need to be digested with trypsin and neutralized) were taken, pipetted evenly, transferred to a 15 mL centrifuge tube, and centrifuged at 1000 rpm at room temperature for 4 minutes; • 2. The supernatant was discarded; 5 mL of complete medium was added and pipetted evenly; 10 μL of cell suspension was taken out, mixed well with 10 μL of 0.4% trypan blue, and counted under a cell counter; the proportion of living cells was ensured to be above 90%; • 3. 80 μL of cell suspension per well was seeded into a 96-well plate according to the conditions shown in the attached table, and cultured overnight; in the outer 36 wells of the 96-well plate, no cells were added but only sterile water was added; only the inner 60 wells were used for cell assay and control; • 4. 5×compound dilution: the compounds were serially diluted 3-fold to obtain a total of 9 concentrations; 80-fold overall dilution was completed with complete medium, the resulting concentration was 5 times the final drug concentration, and DMSO concentration was 1.25%; • 5. 20 μL of the corresponding compounds with different concentration gradients were added to each well of assay wells of the 96-well plate; 20 μL of complete medium was added to positive and negative control wells and shaken well; and the final concentration of DMSO in each well was 0.25%; • 6. After 72 hours of incubation, 10 μL of CCK-8 reagent was added to each well and further incubated at 37° C. for 1-2 hours; and the OD value was read at 450 nm; • 7. Cell survival rate (%)=[(As−Ab)/(Ac−Ab)]*100% • As: Assay well (medium containing cells, CCK-8, compound), • Ac: Control well (medium containing cells, CCK-8), • Ab: Blank well (CCK-8, medium without cell and compound), • 8. The values were imported into Graphpad Prism 5 software for IC50 calculation.
For `O=C(Nc1ccc(Oc2ccnc3cc(OCCCN4CCCCC4)c4c(c23)OCCO4)c(F)c1)c1cccn(-c2ccc(F)cc2)c1=O` [Example 31, N-(3-fluoro-4-((5-(3-(piperidin-1-yl)propoxy)-2,3-dihydro-[1,4]dioxino[2,3-f]quinolin-10-yl)oxy)phenyl)-1-(4-fluorophenyl)-2-oxo-1,2-dihydropyridine-3-carboxamide], the IC50 (in general, the concentration that gives 50% inhibition) is at most 50 nM.

The assay is the same for the next values; noted with them: Homo sapiens, EBC-1.
Take `CCOc1ccn(-c2ccc(F)cc2)c(=O)c1C(=O)Nc1ccc(Oc2ccnc3cc(OCCCN4CCOCC4)c4c(c23)OCCO4)c(F)c1` [Example 22, N-(3-fluoro-4-((5-(3-morpholinopropoxy)-2,3-dihydro-[1,4]dioxino[2,3-f]quinolin-10-yl)oxy)phenyl)-1-(4-fluorophenyl)-4-ethoxy-2-oxo-1,2-dihydropyridine-3-carboxamide]: the IC50 was at most 50 nM.

Compound `COc1ccn(-c2ccc(F)cc2)c(=O)c1C(=O)Nc1ccc(Oc2ccnc3cc(OCCCN4CCOCC4)c4c(c23)OCCO4)c(F)c1` [Example 21, N-(3-fluoro-4-((5-(3-morpholinopropoxy)-2,3-dihydro-[1,4]dioxino[2,3-f]quinolin-10-yl)oxy)phenyl)-1-(4-fluorophenyl)-4-methoxy-2-oxo-1,2-dihydropyridine-3-carboxamide] came in with an IC50 of at most 50 nM.

The compound `CCOc1ccn(-c2ccc(F)cc2)c(=O)c1C(=O)Nc1cc(F)c(Oc2ccnc3cc(OC)c4c(c23)OCCO4)cc1Cl` [Example 115, N-(2-chloro-5-fluoro-4-((5-methoxy-2,3-dihydro-[1,4]dioxino[2,3-f]quinolin-10-yl)oxy)phenyl)-4-ethoxy-2-oxo-1-(4-fluorophenyl)-1,2-dihydropyridin-3-carboxamide] had an IC50 of at most 50 nM. Take `C=CCn1cc(C(=O)Nc2ccc(Oc3ccnc4cc(OC)c5c(c34)OCCO5)c(F)c2)c(=O)n(-c2ccc(F)cc2)c1=O` [Example 100, N-(3-fluoro-4-((5-methoxy-2,3-dihydro-[1,4]dioxino[2,3-f]quinolin-10-yl)oxy)phenyl)-3-(4-fluorophenyl)-1-allyl-2,4-dioxo-1,2,3,4-tetrahydropyrimidine-5-carboxamide]: the IC50 was at most 50 nM. Compound `COc1cn(-c2ccc(F)cc2C)nc1C(=O)Nc1ccc(Oc2ccnc3cc(OCCCN4CCOCC4)c4c(c23)OCCO4)c(F)c1` [Example 27, 1-(4-fluoro-2-methylphenyl)-N-(3-fluoro-4-((5-(3-morpholinopropoxy)-2,3-dihydro-[1,4]dioxino[2,3-f]quinolin-10-yl)oxy)phenyl)-4-methoxy-1H-pyrazole-3-carboxamide] registered an IC50 of 50 to 200 nM. As to `CCOc1ccn(-c2ccc(Cl)cc2)c(=O)c1C(=O)Nc1ccc(Oc2ccnc3cc(OC)c4c(c23)OCCO4)c(F)c1` [Example 113, N-(3-fluoro-4-((5-methoxy-2,3-dihydro-[1,4]dioxino[2,3-f]quinolin-10-yl)oxy)phenyl)-2-oxo-4-ethoxy-1-(4-chlorophenyl)-1,2-dihydropyridin-3-carboxamide], the IC50 lay in the range of 50 to 200 nM.

Compound `COc1cc2nccc(Oc3ccc(NC(=O)c4cn(C)c(=O)n(-c5ccc(F)cc5)c4=O)cc3F)c2c2c1OCCO2` [Example 13, N-(3-fluoro-4-((5-methoxy-2,3-dihydro-[1,4]dioxino[2,3-f]quinolin-10-yl)oxy)phenyl)-3-(4-fluorophenyl)-1-methyl-2,4-dioxo-1,2,3,4-tetrahydropyrimidine-5-carboxamide] had an IC50 of 50 to 200 nM. Consider `COc1cc2nccc(Oc3ccc(NC(=O)c4cn(CCF)c(=O)n(-c5ccc(F)cc5)c4=O)cc3F)c2c2c1OCCO2` [Example 101, N-(3-fluoro-4-((5-methoxy-2,3-dihydro-[1,4]dioxino[2,3-f]quinolin-10-yl)oxy)phenyl)-3-(4-fluorophenyl)-1-(2-fluoroethyl)-2,4-dioxo-1,2,3,4-tetrahydropyrimidine-5-carboxamide], for which the 50% inhibitory concentration (IC50) was at most 50 nM. The compound `COc1ccn(-c2ccc(F)cc2)c(=O)c1C(=O)Nc1ccc(Oc2ncnc3cc(OCCCN4CCOCC4)c4c(c23)OCCO4)c(F)c1` [Example 5, N-(3-fluoro-4-((5-(3-morpholinopropoxy)-2,3-dihydro-[1,4]dioxino[2,3-f]quinazolin-10-yl)oxy)phenyl)-1-(4-fluorophenyl)-4-methoxy-2-oxo-1,2-dihydropyridine-3-carboxamide] had an IC50 of at most 50 nM. Same read-out and setting: with `COc1ccn(-c2ccc(F)cc2)c(=O)c1C(=O)Nc1ccc(Oc2ccnc3cc(OCCCN4CCCCC4)c4c(c23)OCCO4)c(F)c1` [Example 32, N-(3-fluoro-4-((5-(3-(piperidin-1-yl)propoxy)-2,3-dihydro-[1,4]dioxino[2,3-f]quinolin-10-yl)oxy)phenyl)-1-(4-fluorophenyl)-4-methoxy-2-oxo-1,2-dihydropyridine-3-carboxamide] the figure was at most 50 nM; with `COc1cc2nccc(Oc3ccc(NC(=O)c4cn(CCCO)c(=O)n(-c5ccc(F)cc5)c4=O)cc3F)c2c2c1OCCO2` [Example 99, N-(3-fluoro-4-((5-methoxy-2,3-dihydro-[1,4]dioxino[2,3-f]quinolin-10-yl)oxy)phenyl)-3-(4-fluorophenyl)-1-(3-hydroxypropyl)-2,4-dioxo-1,2,3,4-tetrahydropyrimidine-5-carboxamide], at most 50 nM; with `CCOc1ccn(-c2ccc(F)cc2)c(=O)c1C(=O)Nc1ccc(Oc2ncnc3cc(OCCCN4CCOCC4)c4c(c23)OCCO4)c(F)c1` [Example 6, N-(3-fluoro-4-((5-(3-morpholinopropoxy)-2,3-dihydro-[1,4]dioxino[2,3-f]quinazolin-10-yl)oxy)phenyl)-1-(4-fluorophenyl)-4-ethoxy-2-oxo-1,2-dihydropyridine-3-carboxamide], at most 50 nM. The compound `COCCOc1cc2nccc(Oc3ccc(NC(=O)c4c(OC)ccn(-c5ccc(F)cc5)c4=O)cc3F)c2c2c1OCCO2` [Example 35, N-(3-fluoro-4-((5-(2-methoxyethoxy)-2,3-dihydro-[1,4]dioxino[2,3-f]quinolin-10-yl)oxy)phenyl)-1-(4-fluorophenyl)-4-methoxy-2-oxo-1,2-dihydropyridine-3-carboxamide] came in with an IC50 of at most 50 nM.

In the case of `O=C(Nc1ccc(Oc2ncnc3cc(OCCCN4CCOCC4)c4c(c23)OCCO4)c(F)c1)c1cccn(-c2ccc(F)cc2)c1=O` [Example 4, N-(3-fluoro-4-((5-(3-morpholinopropoxy)-2,3-dihydro-[1,4]dioxino[2,3-f]quinazolin-10-yl)oxy)phenyl)-1-(4-fluorophenyl)-2-oxo-1,2-dihydropyridine-3-carboxamide], the IC50 was at most 50 nM. Same read-out and setting: with `CC(C)n1cc(C(=O)Nc2ccc(Oc3ccnc4cc(OCC5(N)CC5)c5c(c34)OCCO5)c(F)c2)c(=O)n(-c2ccc(F)cc2)c1=O` [Example 106, N-(3-fluoro-4-((5-((1-aminocyclopropyl)methoxy)-2,3-dihydro-[1,4]dioxino[2,3-f]quinolin-1 0-yl)oxy)phenyl)-3-(4-fluorophenyl)-1-isopropyl-2,4-dioxo-1,2,3,4-tetrahydropyrimidine-5-carboxamide] the figure was at most 50 nM; with `COc1cc2nccc(Oc3ccc(NC(=O)c4c(OC)ccn(-c5ccc(F)cc5)c4=O)cc3F)c2c2c1OCCO2` [Example 18, N-(3-fluoro-4-((5-methoxy-2,3-dihydro-[1,4]dioxino[2,3-f]quinolin-10-yl)oxy)phenyl)-1-(4-fluorophenyl)-4-methoxy-2-oxo-1,2-dihydropyridine-3-carboxamide], at most 50 nM; with `CCOc1ccn(-c2cccc(F)c2)c(=O)c1C(=O)Nc1ccc(Oc2ccnc3cc(OC)c4c(c23)OCCO4)c(F)c1` [Example 114, N-(3-fluoro-4-((5-methoxy-2,3-dihydro-[1,4]dioxino[2,3-f]quinolin-10-yl)oxy)phenyl)-2-oxo-4-ethoxy-1-(3-fluorophenyl)-1,2-dihydropyridin-3-carboxamide], 50 to 200 nM.

On to `CCOc1ccn(-c2ccc(F)cc2)c(=O)c1C(=O)Nc1ccc(Oc2ccnc3cc(OCC4(N)CC4)c4c(c23)OCCO4)c(F)c1` [Example 105, N-(4-((5-((1-aminocyclopropyl)methoxy)-2,3-dihydro-[1,4]dioxino[2,3-f]quinolin-10-yl)oxy)-3-fluorophenyl)-4-ethoxy-1-(4-fluorophenyl)-2-oxo-1,2-dihydropyridine-3-carboxamide], for which the IC50 is at most 50 nM. On the same count and under the same terms, the result for `COCCOc1cc2nccc(Oc3ccc(NC(=O)c4cccn(-c5ccc(F)cc5)c4=O)cc3F)c2c2c1OCCO2` [Example 34, N-(3-fluoro-4-((5-(2-methoxyethoxy)-2,3-dihydro-[1,4]dioxino[2,3-f]quinolin-10-yl)oxy)phenyl)-1-(4-fluorophenyl)-2-oxo-1,2-dihydropyridine-3-carboxamide] reads at most 50 nM; that for `CCOc1ccn(-c2ccc(C)cc2)c(=O)c1C(=O)Nc1ccc(Oc2ccnc3cc(OC)c4c(c23)OCCO4)c(F)c1` [Example 112, N-(3-fluoro-4-((5-methoxy-2,3-dihydro-[1,4]dioxino[2,3-f]quinolin-10-yl)oxy)phenyl)-2-oxo-4-ethoxy-1-(4-methylphenyl)-1,2-dihydropyridin-3-carboxamide], 50 to 200 nM.
